What was measured:
[1] = tested on: B cell malignancy cell lines; test: Soluble BCMA ELISA in supernatants of cell lines; type: cell-based; conditions: 100 nM, 24 or 48h, both time points
Experimental: (§1) To evaluate whether other malignancies besides multiple myeloma (MM) can potentially be targeted by BCMA directed immunotherapy, B cell malignancy cell lines were assessed for BCMA expression by flow cytometry. […] Per FIG. 1A, B cell malignancy cell lines were cultured and basal levels of BCMA were assessed by flow cytometry and compared to isotype controls. (n=3-8). Dotted line indicates no increase compared to isotype control. In accordance with FIG. 1B, cell lines were treated for 24-48h with 100nM γ-secretase inhibitor or with medium control and BCMA was assessed by flow cytometry. Values are represented as fold increase compared to 0 nM γ-secretase inhibitor. (n=3-12) Dotted line indicates no increase compared to 0 nM γ-secretase inhibitor. FIG. 1C represents the results of an asssessment of soluble BCMA by ELISA in supernatants of B cell malignancy cell lines after treatment with 0 nM or 100 nM γ-secretase inhibitor for 24-48 h. (n=2). […] The P value was calculated by paired t test of Wilcoxon test (FIG. 1A-1B) or simple linear regression (FIG. 1E). […]
(§2) Since BCMA is known to be cleaved off by γ-secretase, it was evaluated whether inhibition of this enzyme would lead to enhanced BCMA levels on these B cell lines. […]
(§3) sBCMA ELISA. […] After 24 or 48 h supernatants were harvested and stored at −20° C. soluble BCMA (sBCMA) in supernatants were measured by ELISA using antibody pairs for BCMA.

[2] = tested on: primary CLL cells; test: Soluble BCMA ELISA in supernatants of CLL cells; type: cell-based, human; conditions: 100 nM, 24-48 h
Experimental: Primary CLL samples were stained for BCMA expression by flow cytometry and compared to isotype controls. […] As provided in FIG. 2A, CLL cells were cultured and basal levels of BCMA were assessed by flow cytometry and compared to isotype controls. (n=25). For FIG. 2B, CLL cells were treated for 24 or 48h with 0nM or 100 nM γ-secretase inhibitor and BCMA was assessed by flow cytometry. Values are represented as fold increase compared to medium control. (n=12-28). FIG. 2C provides basal levels of BCMA compared to isotype control among CLL patients with mutated or unmutated IgVH. (n=4-10). FIG. 2D illustrates the fold increase of BCMA after 24-48 h treatment with 100nM γ-secretase inhibitor compared to medium control among CLL patients with mutated or unmutated IgVH. (n=5-13). FIG. 2E provides the results of an assessment of BCMA mRNA relative to GAPDH control by qPCR after primary CLL samples were treated without or with 100 nM γ-secretase inhibitor for 24 h. (n=9). […] (n=4-12) The P value was calculated by Wilcoxon test (FIGS. 2A-2B), Mann Whitney test (FIGS. 2B, 2C, 2D) or paired t test (FIGS. 2E, F). […]
as §3

[3] = tested on: B cell malignancy cell lines; test: BCMA membrane level by flow cytometry after γ-secretase inhibition; type: cell-based; conditions: 100nM, 24-48 h, all B cell malignancy cell lines
Experimental: as §1, §2
Flow cytometry. […] After antibody staining, samples were washed using PBA and acquired on BD FACS Canto or LSR Fortessa flow cytometer and analysed with FlowJo v10. […]

[4] = tested on: primary CLL cells; test: Viability of CLL cells under γ-secretase inhibition; type: cell-based, human; conditions: 100 nM γ-secretase inhibitor
Experimental: Viability of CLL cells was not affected by the inhibitor (FIG. 8A). No difference in BCMA levels, before or after γ-secretase inhibitor treatment, was observed between CLL samples with mutated and unmutated immunoglobulin heavy chain variable region gene (IgHV) status (FIG. 2C-D). Low but measurable mRNA levels of BCMA expression could be detected on CLL cells (FIG. 2E). Despite low BCMA detection by flow cytometry, sBCMA could be detected in supernatants of CLL cells, already after 24 h of culturing, which increased after 48 h (FIG. 2F).

C[C@H](NC(=O)[C@@H](O)c1cc(F)cc(F)c1)C(=O)N[C@@H]1C(=O)N(C)c2ccccc2-c2ccccc21 [Ly411575]
soluble BCMA (sBCMA) levels in supernatants [1]: strongly reduced
sBCMA levels in supernatants of CLL cells [2]: marked decreases
BCMA level after γ-secretase inhibition compared to unstimulated cells [3]: increased BCMA level
Viability of CLL cells [4]: not affected

From patent publication US20220411525A1, “BCMA AS A TARGET FOR T CELL REDIRECTING ANTIBODIES IN B CELL LYMPHOMAS” (Janssen Pharmaceutica NV, priority 2021, published 2022)
